# Measurements reported in ChEMBL document CHEMBL1201861, “Genomics of Drug Sensitity in Cancer screening data, Wellcome Trust Sanger Institute”.
# Tests used:
# Experiment in all cases: cells
# Type in all cases: functional, cell-based
# Details in all cases: Homo sapiens
# [1] = system: CPC-N;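 further: growth inhibition of CPC-N cells, with a cell viability assay as the readout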
# Description: SANGER: Inhibition of human CPC-N cell growth in a cell viability assay.
# [2] = system: Ca9-22;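 further: growth inhibition of Ca9-22 cells, read out with a cell viability assay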
# Description: SANGER: Inhibition of human Ca9-22 cell growth in a cell viability assay.
# [3] = system: CaR-1;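 further: growth inhibition of human CaR-1 cancer cells, read out with a cell viability assay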
# Description: SANGER: Inhibition of human CaR-1 cell growth in a cell viability assay.
# [4] = system: Capan-2;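 further: Capan-2 cell growth inhibition, read out with a viability assay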
# Description: SANGER: Inhibition of human Capan-2 cell growth in a cell viability assay.
# [5] = system: ChaGo-K-1;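 further: growth inhibition of ChaGo-K-1 cells, read out with a cell viability assay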
# Description: SANGER: Inhibition of human ChaGo-K-1 cell growth in a cell viability assay.
# [6] = system: D-542MG
# Description: SANGER: Inhibition of human D-542MG cell growth in a cell viability assay.
# [7] = system: DBTRG-05MG;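 further: cell viability assay measuring growth inhibition of human DBTRG-05MG cells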
# Description: SANGER: Inhibition of human DBTRG-05MG cell growth in a cell viability assay.
# [8] = system: DOK;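 further: cell viability assay read-out, values reflect inhibition of cell growth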
# Description: SANGER: Inhibition of human DOK cell growth in a cell viability assay.
# [9] = system: EB2;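 further: growth inhibition of EB2 cells, read out with a cell viability assay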
# Description: SANGER: Inhibition of human EB2 cell growth in a cell viability assay.
# [10] = system: EFO-21;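 further: growth inhibition of EFO-21 cells measured with a viability assay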
# Description: SANGER: Inhibition of human EFO-21 cell growth in a cell viability assay.
# [11] = system: HCC2157;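 further: growth inhibition of the cancer cell line, read out as cell viability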
# Description: SANGER: Inhibition of human HCC2157 cell growth in a cell viability assay.
# [12] = system: HCC 2998;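 further: growth inhibition of human HCC2998 cells, measured with a cell viability read-out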
# Description: SANGER: Inhibition of human HCC2998 cell growth in a cell viability assay.
# [13] = system: HCC70;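 further: cell viability assay measuring how strongly the compound suppresses proliferation of HCC70 cells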
# Description: SANGER: Inhibition of human HCC70 cell growth in a cell viability assay.
# [14] = system: HCT-116
# Description: SANGER: Inhibition of human HCT-116 cell growth in a cell viability assay.
# [15] = system: HCT-15;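 further: cell viability readout, IC50 reflecting suppression of HCT-15 cell growth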
# Description: SANGER: Inhibition of human HCT-15 cell growth in a cell viability assay.
# [16] = system: HMV-2 cell line;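 further: growth inhibition of HMV-II cells, read out with a cell viability assay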
# Description: SANGER: Inhibition of human HMV-II cell growth in a cell viability assay.
# [17] = system: Huh-7;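 further: HuH-7 cell growth inhibition, read out with a cell viability assay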
# Description: SANGER: Inhibition of human HuH-7 cell growth in a cell viability assay.
# [18] = system: HuO-3N1;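 further: cell viability readout used to measure how strongly compounds suppress proliferation of human HuO-3N1 cells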
# Description: SANGER: Inhibition of human HuO-3N1 cell growth in a cell viability assay.
# [19] = system: JEG-3;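 further: growth inhibition of human JEG-3 cells, read out with a cell viability assay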
# Description: SANGER: Inhibition of human JEG-3 cell growth in a cell viability assay.
# [20] = system: KP-4;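 further: human KP-4 cells, with growth inhibition read out through a cell viability assay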
# Description: SANGER: Inhibition of human KP-4 cell growth in a cell viability assay.
# [21] = system: LCLC-97TM1;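 further: cell viability assay measuring growth inhibition of human LCLC-97TM1 cells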
# Description: SANGER: Inhibition of human LCLC-97TM1 cell growth in a cell viability assay.
# [22] = system: MC-IXC;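 further: growth inhibition of MC-IXC cells, read out with a cell viability assay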
# Description: SANGER: Inhibition of human MC-IXC cell growth in a cell viability assay.
# [23] = system: MDA-MB-453
# Description: SANGER: Inhibition of human MDA-MB-453 cell growth in a cell viability assay.
# [24] = system: ME-180;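 further: cell viability assay measuring growth inhibition of ME-180 cells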
# Description: SANGER: Inhibition of human ME-180 cell growth in a cell viability assay.
# [25] = system: MHH-ES-1;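 further: cell growth inhibition measured by a cell viability assay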
# Description: SANGER: Inhibition of human MHH-ES-1 cell growth in a cell viability assay.
# [26] = system: MKN-28;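 further: cell viability assay read-out, IC50 reflects suppression of growth of human MKN-28 cells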
# Description: SANGER: Inhibition of human MKN28 cell growth in a cell viability assay.
# [27] = system: MRK-nu-1;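 further: cell viability assay measuring growth suppression of human MRK-nu-1 cells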
# Description: SANGER: Inhibition of human MRK-nu-1 cell growth in a cell viability assay.
# [28] = system: NCI-H1437;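 further: growth inhibition of human NCI-H1437 cells, read out by a cell viability assay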
# Description: SANGER: Inhibition of human NCI-H1437 cell growth in a cell viability assay.
# [29] = system: NCI-H1522;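 further: growth inhibition of NCI-H1522 cells, read out with a cell viability assay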
# Description: SANGER: Inhibition of human NCI-H1522 cell growth in a cell viability assay.
# [30] = system: NCI-H1563;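 further: growth inhibition of human NCI-H1563 cells, read out with a cell viability assay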
# Description: SANGER: Inhibition of human NCI-H1563 cell growth in a cell viability assay.
# [31] = system: NCI-H1651;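 further: Read-out is a cell viability assay, with IC50 expressing inhibition of NCI-H1651 cell growth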
# Description: SANGER: Inhibition of human NCI-H1651 cell growth in a cell viability assay.
# [32] = system: NCI-H1882;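 further: growth inhibition of the cell line, determined with a viability assay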
# Description: SANGER: Inhibition of human NCI-H1882 cell growth in a cell viability assay.
# [33] = system: NCI-H2122;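 further: growth inhibition of the cells, read out with a cell viability assay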
# Description: SANGER: Inhibition of human NCI-H2122 cell growth in a cell viability assay.
# [34] = system: NCI-H2196;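 further: cell viability assay used as the readout of growth inhibition in NCI-H2196 cells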
# Description: SANGER: Inhibition of human NCI-H2196 cell growth in a cell viability assay.
# [35] = system: NCI-H2347;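 further: growth inhibition of the cell line, read out with a cell viability assay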
# Description: SANGER: Inhibition of human NCI-H2347 cell growth in a cell viability assay.
# [36] = system: NCI-H28;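 further: growth inhibition of human NCI-H28 cells, read out as cell viability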
# Description: SANGER: Inhibition of human NCI-H28 cell growth in a cell viability assay.
# [37] = system: NCI-H522;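 further: cell viability assay measuring growth inhibition of human NCI-H522 cells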
# Description: SANGER: Inhibition of human NCI-H522 cell growth in a cell viability assay.
# [38] = system: NCI-H524;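 further: growth inhibition of human NCI-H524 cells, read out through a cell viability assay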
# Description: SANGER: Inhibition of human NCI-H524 cell growth in a cell viability assay.
# [39] = system: NCI-H650;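 further: growth inhibition of NCI-H650 cells, read out by a viability assay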
# Description: SANGER: Inhibition of human NCI-H650 cell growth in a cell viability assay.
# [40] = system: NCI-H810;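 further: IC50 reflects inhibition of cancer cell line growth, read out with a cell viability assay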
# Description: SANGER: Inhibition of human NCI-H810 cell growth in a cell viability assay.
# [41] = system: NCI-H889;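 further: cell growth inhibition of the cell line, read out with a viability assay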
# Description: SANGER: Inhibition of human NCI-H889 cell growth in a cell viability assay.
# [42] = system: OAW-28;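 further: growth inhibition of OAW-28 cells, read out with a cell viability assay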
# Description: SANGER: Inhibition of human OAW-28 cell growth in a cell viability assay.
# [43] = system: OAW-42;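 further: growth inhibition of OAW-42 cells, read out with a cell viability assay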
# Description: SANGER: Inhibition of human OAW-42 cell growth in a cell viability assay.
# [44] = system: PC-3;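 further: cell viability assay measuring growth inhibition of PC-3 cells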
# Description: SANGER: Inhibition of human PC-3 cell growth in a cell viability assay.
# [45] = system: REH;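 further: growth inhibition of REH cells determined with a cell viability read-out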
# Description: SANGER: Inhibition of human REH cell growth in a cell viability assay.
# [46] = system: RO82-W-1;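 further: growth inhibition of human RO82-W-1 cells, measured with a cell viability assay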
# Description: SANGER: Inhibition of human RO82-W-1 cell growth in a cell viability assay.
# [47] = system: SBC-5;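 further: cell viability assay read-out, IC50 is the concentration that inhibits growth of the cells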
# Description: SANGER: Inhibition of human SBC-5 cell growth in a cell viability assay.
# [48] = system: SK-MEL-24;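 further: growth inhibition read out by a cell viability assay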
# Description: SANGER: Inhibition of human SK-MEL-24 cell growth in a cell viability assay.
# [49] = system: SK-N-AS;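 further: growth inhibition of human SK-N-AS cells, measured with a cell viability assay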
# Description: SANGER: Inhibition of human SK-N-AS cell growth in a cell viability assay.
# [50] = system: SNU-C1;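 further: growth inhibition of SNU-C1 human cells, read out by a cell viability assay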
# Description: SANGER: Inhibition of human SNU-C1 cell growth in a cell viability assay.
# [51] = system: SW1573
# Description: SANGER: Inhibition of human SW1573 cell growth in a cell viability assay.
# [52] = system: SW1783
# Description: SANGER: Inhibition of human SW1783 cell growth in a cell viability assay.
# [53] = system: SW948
# Description: SANGER: Inhibition of human SW948 cell growth in a cell viability assay.
# [54] = system: SiHa
# Description: SANGER: Inhibition of human SiHa cell growth in a cell viability assay.
# [55] = system: T47D
# Description: SANGER: Inhibition of human T47D cell growth in a cell viability assay.
# [56] = system: 786-0
# Description: SANGER: Inhibition of human 786-0 cell growth in a cell viability assay.
# [57] = system: ACHN
# Description: SANGER: Inhibition of human ACHN cell growth in a cell viability assay.
# [58] = system: CAL-54
# Description: SANGER: Inhibition of human CAL-54 cell growth in a cell viability assay.
# [59] = system: CAL-85-1
# Description: SANGER: Inhibition of human CAL-85-1 cell growth in a cell viability assay.
# [60] = system: TE-15
# Description: SANGER: Inhibition of human TE-15 cell growth in a cell viability assay.
# [61] = system: UACC-62
# Description: SANGER: Inhibition of human UACC-62 cell growth in a cell viability assay.
# [62] = system: UACC-812
# Description: SANGER: Inhibition of human UACC-812 cell growth in a cell viability assay.
# [63] = system: YT
# Description: SANGER: Inhibition of human YT cell growth in a cell viability assay.
# [64] = system: COLO-679
# Description: SANGER: Inhibition of human COLO-679 cell growth in a cell viability assay.
# [65] = system: COLO-680N
# Description: SANGER: Inhibition of human COLO-680N cell growth in a cell viability assay.
smiles,measurement,setting,value
CCNC(=O)c1noc(-c2cc(C(C)C)c(O)cc2O)c1-c1ccc(CN2CCOCC2)cc1 [LUMINESPIB],IC50,[1],> 256 nM
same,IC50,[2],28 nM
same,IC50,[3],> 256 nM
same,IC50,[4],6.38 nM
same,IC50,[5],127 nM
same,IC50,[6],140 nM
same,IC50,[7],29.6 nM
same,IC50,[8],> 256 nM
same,IC50,[9],72.9 nM
same,IC50,[10],89.9 nM
same,IC50,[11],57.3 nM
same,IC50,[12],29.4 nM
same,IC50,[13],54.5 nM
same,IC50,[14],152 nM
same,IC50,[15],66 nM
same,IC50,[16],4.49 nM
same,IC50,[17],70.3 nM
same,IC50,[18],> 256 nM
same,IC50,[19],95.1 nM
same,IC50,[20],36.6 nM
same,IC50,[21],13 nM
same,IC50,[22],17.4 nM
same,IC50,[23],> 256 nM
same,IC50,[24],47.8 nM
same,IC50,[25],12.6 nM
same,IC50,[26],30.1 nM
same,IC50,[27],23 nM
same,IC50,[28],63.3 nM
same,IC50,[29],148 nM
same,IC50,[30],> 256 nM
same,IC50,[31],24.3 nM
same,IC50,[32],> 256 nM
same,IC50,[33],13.8 nM
same,IC50,[34],217 nM
same,IC50,[35],80.3 nM
same,IC50,[36],> 256 nM
same,IC50,[37],19.4 nM
same,IC50,[38],> 256 nM
same,IC50,[39],21.2 nM
same,IC50,[40],17.2 nM
same,IC50,[41],> 256 nM
same,IC50,[42],> 256 nM
same,IC50,[43],37.5 nM
same,IC50,[44],132 nM
same,IC50,[45],20.6 nM
same,IC50,[46],> 256 nM
same,IC50,[47],91.9 nM
same,IC50,[48],42.8 nM
same,IC50,[49],> 256 nM
same,IC50,[50],> 256 nM
same,IC50,[51],58 nM
same,IC50,[52],5.91 nM
same,IC50,[53],> 256 nM
same,IC50,[54],> 256 nM
same,IC50,[55],> 256 nM
same,IC50,[56],6.63 nM
same,IC50,[57],23.5 nM
same,IC50,[58],> 256 nM
same,IC50,[59],11.9 nM
same,IC50,[60],13.4 nM
same,IC50,[61],121 nM
same,IC50,[62],> 256 nM
same,IC50,[63],11.8 nM
same,IC50,[64],31.1 nM
same,IC50,[65],44.1 nM
CC(C)=CC[C@@H](O)C1=CC(=O)c2c(O)ccc(O)c2C1=O [SHIKONIN],IC50,[1],> 16000 nM
same,IC50,[2],581 nM
same,IC50,[3],1310 nM
same,IC50,[4],1010 nM
same,IC50,[5],657 nM
same,IC50,[6],581 nM
same,IC50,[7],611 nM
same,IC50,[8],5190 nM
same,IC50,[9],311 nM
same,IC50,[10],1340 nM
same,IC50,[11],338 nM
same,IC50,[12],> 16000 nM
same,IC50,[13],2010 nM
same,IC50,[14],386 nM
same,IC50,[15],268 nM
same,IC50,[16],56.4 nM
same,IC50,[17],1960 nM
same,IC50,[18],4430 nM
same,IC50,[19],3170 nM
same,IC50,[20],501 nM
same,IC50,[21],613 nM
same,IC50,[22],387 nM
same,IC50,[23],2520 nM
same,IC50,[24],279 nM
same,IC50,[25],689 nM
same,IC50,[26],617 nM
same,IC50,[27],102 nM
same,IC50,[28],1560 nM
same,IC50,[29],519 nM
same,IC50,[30],626 nM
same,IC50,[31],> 16000 nM
same,IC50,[32],576 nM
same,IC50,[33],> 16000 nM
same,IC50,[34],654 nM
same,IC50,[35],968 nM
same,IC50,[36],1010 nM
same,IC50,[37],560 nM
same,IC50,[38],> 16000 nM
same,IC50,[39],665 nM
same,IC50,[40],503 nM
same,IC50,[41],> 16000 nM
same,IC50,[42],1200 nM
same,IC50,[43],578 nM
same,IC50,[44],859 nM
same,IC50,[45],147 nM
same,IC50,[46],2840 nM
same,IC50,[47],215 nM
same,IC50,[48],1130 nM
same,IC50,[49],1790 nM
same,IC50,[50],> 16000 nM
same,IC50,[51],372 nM
same,IC50,[52],1070 nM
same,IC50,[53],11900 nM
same,IC50,[54],> 16000 nM
same,IC50,[55],223 nM
same,IC50,[56],344 nM
same,IC50,[57],146 nM
same,IC50,[58],1420 nM
same,IC50,[59],161 nM
same,IC50,[60],400 nM
same,IC50,[61],1230 nM
same,IC50,[62],5080 nM
same,IC50,[63],384 nM
same,IC50,[64],184 nM
same,IC50,[65],590 nM
